Counter-ions that a name gives are not always drawn.
Experiments:
Assay type in all cases: in vivo, human
lymphocytes = assay: Multiple ascending dose study: lymphocyte counts, safety population; settings: for Lymphocytes, On Treatment Mean / Lymphocytes, Percent Change from Baseline, Mean / Lymphocytes, Percent Change from Baseline, Median / Lymphocytes, Percent Change from Baseline, Min, Max: day 21
Experimental: (§1) A randomized, double-blind, placebo-controlled, sequential, ascending, multiple dose study to assess the safety, tolerability, and pharmacokinetics of the L-arginine salt of Compound 1 administered to healthy adult subjects was conducted. This study was designed to evaluate the safety, tolerability, pharmacokinetics, and pharmacodynamics of the L-arginine salt of Compound 1.
(§2) Cohort 1 was dosed with 0.7 mg (by administering two 0.35 mg formulations) for 21 days. Cohort 2 was dosed with 1.35 mg (by administering both a 0.35 mg formulation and a 1 mg formulation) for 21 days. Cohort 3 was dosed with 2.0 mg for 21 days. Cohort 4 was dosed with 0.35 mg for 7 days and then with 2.0 mg for 14 days. Cohort 5 was dosed with 0.5 for 7 days and then with 3.0 mg (by administering both a 1 mg formulation and a 2 mg formulation) for 14 days.

healthy adult subjects [1] = assay: Multiple ascending dose study: heart rate, safety population; settings: Day 1 to Day 28
Experimental: as §1, §2
(§3) The following safety assessments were conducted: physical examinations with ophthalmoscopy, clinical laboratory tests (serum chemistry, coagulation, and urinalysis), vital signs, continuous telemetry (12 lead ECG), safety ECGs, pulmonary function testing (PFT), serum protein electrophoresis (SPEP) and serum immunoelectrophoresis (IEP), and adverse event reporting.

healthy adult subjects [2] = assay: Multiple ascending dose study: systolic BP, safety population; settings: Day 1 to Day 28
Experimental: as §1, §2, §3

[3] = 0.35 mg for 7 days then 2.0 mg for 14 days
[4] = 0.5 mg for 7 days then 3.0 mg for 14 days

O=C(O)C[C@H]1CCc2c1[nH]c1ccc(OCc3ccc(C4CCCC4)c(C(F)(F)F)c3)cc21 [L-arginine salt of Compound 1]
Lymphocytes, On Treatment Mean (lymphocytes; [3]): 0.62 10^3/μl | Lymphocytes, Percent Change from Baseline, Mean (lymphocytes; [3]): −67.34% | Lymphocytes, Percent Change from Baseline, Median (lymphocytes; [3]): −67.54% | Lymphocytes, Percent Change from Baseline, Min, Max (lymphocytes; [3]): −77.27 to −57.14% | Lymphocytes, On Treatment Mean (lymphocytes; [4]): 0.62 10^3/μl | Lymphocytes, Percent Change from Baseline, Mean (lymphocytes; [4]): −66.16% | Lymphocytes, Percent Change from Baseline, Median (lymphocytes; [4]): −65.02% | Lymphocytes, Percent Change from Baseline, Min, Max (lymphocytes; [4]): −85.19 to −53.85% | Lymphocytes, On Treatment Mean (lymphocytes; 0.7 mg for 21 days): 1.06 10^3/μl | Lymphocytes, Percent Change from Baseline, Mean (lymphocytes; 0.7 mg for 21 days): −41.03% | Lymphocytes, Percent Change from Baseline, Median (lymphocytes; 0.7 mg for 21 days): −40.37% | Lymphocytes, Percent Change from Baseline, Min, Max (lymphocytes; 0.7 mg for 21 days): −55.56 to −23.08% | Lymphocytes, On Treatment Mean (lymphocytes; 1.35 mg for 21 days): 0.89 10^3/μl | Lymphocytes, Percent Change from Baseline, Mean (lymphocytes; 1.35 mg for 21 days): −53.43% | Lymphocytes, Percent Change from Baseline, Median (lymphocytes; 1.35 mg for 21 days): −51.85% | Lymphocytes, Percent Change from Baseline, Min, Max (lymphocytes; 1.35 mg for 21 days): −68.75 to −30.77% | Lymphocytes, On Treatment Mean (lymphocytes; 2.0 mg for 21 days): 0.62 10^3/μl | Lymphocytes, Percent Change from Baseline, Mean (lymphocytes; 2.0 mg for 21 days): −68.81% | Lymphocytes, Percent Change from Baseline, Median (lymphocytes; 2.0 mg for 21 days): −69.44% | Lymphocytes, Percent Change from Baseline, Min, Max (lymphocytes; 2.0 mg for 21 days): −80.00 to −55.56% | Lymphocyte lowering, dose dependence (lymphocytes; multiple dose, 0.7 to 3.0 mg): dose-dependent effect on lymphocyte lowering with maximal effect at 2 mg dose | Minimum Value for Post-dose Heart Rate, Change from Baseline, Mean (healthy adult subjects [1]; [3]): −10.60 BPM | Minimum Value for Post-dose Heart Rate, Change from Baseline, Median (healthy adult subjects [1]; [3]): −7.00 BPM | Minimum Value for Post-dose Heart Rate, Change from Baseline, Min, Max (healthy adult subjects [1]; [3]): −35.00 to 3.00 BPM | Minimum Value for Post-dose Heart Rate, On Treatment Mean (healthy adult subjects [1]; [3]): 52.00 BPM | Minimum Value for Post-dose Heart Rate, Change from Baseline, Mean (healthy adult subjects [1]; [4]): −7.30 BPM | Minimum Value for Post-dose Heart Rate, Change from Baseline, Median (healthy adult subjects [1]; [4]): −6.50 BPM | Minimum Value for Post-dose Heart Rate, Change from Baseline, Min, Max (healthy adult subjects [1]; [4]): −14.00 to −2.00 BPM | Minimum Value for Post-dose Heart Rate, On Treatment Mean (healthy adult subjects [1]; [4]): 53.80 BPM | Minimum Value for Post-dose Heart Rate, Change from Baseline, Mean (healthy adult subjects [1]; 0.7 mg for 21 days): −5.50 BPM | Minimum Value for Post-dose Heart Rate, Change from Baseline, Median (healthy adult subjects [1]; 0.7 mg for 21 days): −5.00 BPM | Minimum Value for Post-dose Heart Rate, Change from Baseline, Min, Max (healthy adult subjects [1]; 0.7 mg for 21 days): −12.00 to −1.00 BPM | Minimum Value for Post-dose Heart Rate, On Treatment Mean (healthy adult subjects [1]; 0.7 mg for 21 days): 54.20 BPM | Minimum Value for Post-dose Heart Rate, Change from Baseline, Mean (healthy adult subjects [1]; 1.35 mg for 21 days): −6.20 BPM | Minimum Value for Post-dose Heart Rate, Change from Baseline, Median (healthy adult subjects [1]; 1.35 mg for 21 days): −5.00 BPM | Minimum Value for Post-dose Heart Rate, Change from Baseline, Min, Max (healthy adult subjects [1]; 1.35 mg for 21 days): −18.00 to 3.00 BPM | Minimum Value for Post-dose Heart Rate, On Treatment Mean (healthy adult subjects [1]; 1.35 mg for 21 days): 54.40 BPM | Minimum Value for Post-dose Heart Rate, Change from Baseline, Mean (healthy adult subjects [1]; 2.0 mg for 21 days): −8.30 BPM | Minimum Value for Post-dose Heart Rate, Change from Baseline, Median (healthy adult subjects [1]; 2.0 mg for 21 days): −7.50 BPM | Minimum Value for Post-dose Heart Rate, Change from Baseline, Min, Max (healthy adult subjects [1]; 2.0 mg for 21 days): −16.00 to −3.00 BPM | Minimum Value for Post-dose Heart Rate, On Treatment Mean (healthy adult subjects [1]; 2.0 mg for 21 days): 51.00 BPM | Minimum Value for Post-dose Systolic BP, Change from Baseline, Mean (healthy adult subjects [2]; [3]): −13.00 mmHg | Minimum Value for Post-dose Systolic BP, Change from Baseline, Median (healthy adult subjects [2]; [3]): −13.00 mmHg | Minimum Value for Post-dose Systolic BP, Change from Baseline, Min, Max (healthy adult subjects [2]; [3]): −28.00 to 0.00 mmHg | Minimum Value for Post-dose Systolic BP, On Treatment Mean (healthy adult subjects [2]; [3]): 94.30 mmHg | Minimum Value for Post-dose Systolic BP, Change from Baseline, Mean (healthy adult subjects [2]; [4]): −7.80 mmHg | Minimum Value for Post-dose Systolic BP, Change from Baseline, Median (healthy adult subjects [2]; [4]): −5.00 mmHg | Minimum Value for Post-dose Systolic BP, Change from Baseline, Min, Max (healthy adult subjects [2]; [4]): −18.00 to 5.00 mmHg | Minimum Value for Post-dose Systolic BP, On Treatment Mean (healthy adult subjects [2]; [4]): 93.20 mmHg | Minimum Value for Post-dose Systolic BP, Change from Baseline, Mean (healthy adult subjects [2]; 0.7 mg for 21 days): −9.70 mmHg | Minimum Value for Post-dose Systolic BP, Change from Baseline, Median (healthy adult subjects [2]; 0.7 mg for 21 days): −9.50 mmHg | Minimum Value for Post-dose Systolic BP, Change from Baseline, Min, Max (healthy adult subjects [2]; 0.7 mg for 21 days): −16.00 to −1.00 mmHg | Minimum Value for Post-dose Systolic BP, On Treatment Mean (healthy adult subjects [2]; 0.7 mg for 21 days): 96.10 mmHg | Minimum Value for Post-dose Systolic BP, Change from Baseline, Mean (healthy adult subjects [2]; 1.35 mg for 21 days): −8.90 mmHg | Minimum Value for Post-dose Systolic BP, Change from Baseline, Median (healthy adult subjects [2]; 1.35 mg for 21 days): −8.00 mmHg | Minimum Value for Post-dose Systolic BP, Change from Baseline, Min, Max (healthy adult subjects [2]; 1.35 mg for 21 days): −22.00 to 3.00 mmHg | Minimum Value for Post-dose Systolic BP, On Treatment Mean (healthy adult subjects [2]; 1.35 mg for 21 days): 100.10 mmHg
